Calls of active or inactive are those of the source. No cut-off for these calls is given here.
Legend:
[1] = Ex vivo binding affinity to amyloid beta (1 to 42) in 3xTg-AD transgenic APP/PS1 mouse brain section assessed as binding constant after 40 mins by autoradiography; format: tissue-based
Astrocyte = assay: Cytotoxicity against C57BL/J6 mouse astrocyte assessed as cell viability after 24 hrs by MTT assay; format: cell-based
[2] = target: Amyloid-beta precursor protein (Homo sapiens) (UniProt P05067); assay: Inhibition of Abeta(1 to 42) peptide aggregation in immortalized human microglia with SV40 assessed as reduction in fluorescence intensity at 0.001 to 50 micromol/L and measured after 48 hrs by thiazine red staining method; format: tissue-based; conditions: dose micromol/L 0.001-50, time 48.0 hrs
Mus musculus [3] = assay: Reduction in amyloid fibril elongation in po dosed 3xTg-AD transgenic mouse brain hippocampus subiculum using BAM-10 primary antibody by immunohistochemical assay relative to 3xTg-AD-non T; format: functional, organism-based
[4] = Octanol/PBS partition co-efficient, log P of compound; format: physicochemical
Mus musculus [5] = assay: Cognitive enhancing effect in female 3xTg-AD transgenic mouse harboring human PS1M146V/APPSWE/tauP301L assessed as escape latency time at 1 mg/kg, po for 8 weeks by Morris water maze test; format: functional, organism-based
Mus musculus [6] = assay: Cognitive enhancing effect in female 3xTg-AD transgenic mouse harboring human PS1M146V/APPSWE/tauP301L assessed as latency to enter to the target quadrant at 1 mg/kg, po for 8 weeks by Morris water maze test; format: functional, organism-based
Mus musculus [7] = assay: Cognitive enhancing effect in female 3xTg-AD transgenic mouse harboring human PS1M146V/APPSWE/tauP301L assessed as time spent in the target quadrant at 1 mg/kg, po for […] by Morris water maze test; format: functional, organism-based; conditions: time 8.0 weeks
[8] = target: Amyloid-beta precursor protein (Homo sapiens) (UniProt P05067); assay: Inhibition of Abeta(1 to 42) peptide aggregation in immortalized human microglia with SV40 assessed as reduction in fluorescence intensity at 1 uM and measured after 48 hrs by thiazine red staining method
Mus musculus [9] = assay: Cognitive enhancing effect in 3xTg-AD transgenic mouse harboring human PS1M146V/APPSWE/tauP301L assessed as number of entries to the target quadrant at 1 mg/kg, po for 8 weeks measured by Morris water maze test; format: functional, organism-based
Mus musculus [10] = assay: Reduction in amyloid beta plaques in po dosed 3xTg-AD transgenic mouse brain hippocampus subiculum using BAM-10 primary antibody by immunohistochemical assay relative to 3xTg-AD-non T; format: functional, organism-based
[11] = target: Amyloid-beta precursor protein (Homo sapiens) (UniProt P05067); assay: Inhibition of Abeta(1 to 42) peptide aggregation in immortalized human microglia with SV40 assessed as reduction in fluorescence intensity at 1 nM and measured after 48 hrs by thiazine red staining method; format: tissue-based

Sequence of Amyloid-beta precursor protein (Homo sapiens) (P05067 whole entry): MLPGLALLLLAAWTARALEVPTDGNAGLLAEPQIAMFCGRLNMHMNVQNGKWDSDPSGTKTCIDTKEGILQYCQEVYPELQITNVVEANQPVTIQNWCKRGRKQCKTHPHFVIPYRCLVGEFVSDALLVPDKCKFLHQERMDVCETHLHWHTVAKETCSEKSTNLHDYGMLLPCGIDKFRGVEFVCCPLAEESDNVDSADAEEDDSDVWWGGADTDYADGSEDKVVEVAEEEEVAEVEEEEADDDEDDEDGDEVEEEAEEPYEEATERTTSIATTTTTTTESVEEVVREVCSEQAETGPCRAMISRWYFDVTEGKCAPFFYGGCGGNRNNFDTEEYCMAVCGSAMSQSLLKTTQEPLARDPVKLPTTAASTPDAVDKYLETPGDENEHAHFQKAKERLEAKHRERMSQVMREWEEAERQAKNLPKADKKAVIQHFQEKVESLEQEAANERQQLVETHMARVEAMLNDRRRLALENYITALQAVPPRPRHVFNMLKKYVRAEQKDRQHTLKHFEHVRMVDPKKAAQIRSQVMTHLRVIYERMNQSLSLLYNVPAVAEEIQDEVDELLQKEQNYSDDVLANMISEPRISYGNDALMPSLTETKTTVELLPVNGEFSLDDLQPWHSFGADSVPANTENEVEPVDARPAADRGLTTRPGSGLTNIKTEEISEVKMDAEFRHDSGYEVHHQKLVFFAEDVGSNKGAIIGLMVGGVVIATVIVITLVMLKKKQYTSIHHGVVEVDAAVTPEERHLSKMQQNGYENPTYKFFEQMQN

| Structure (SMILES) | Kd [1] [µM] | IC50 (Astrocyte) [µM] | inhibition [2] | inhibition (Mus musculus [3]) | logP [4] | Activity (Mus musculus [5]) | Activity (Mus musculus [6]) | Activity (Mus musculus [7]) | inhibition [8] | Activity (Mus musculus [9]) | Activity (Mus musculus [10]) | inhibition [11] |
| --- | --- | --- | --- | --- | --- | --- | --- | --- | --- | --- | --- | --- |
| CNc1ccc(/C=C/c2ccc(OCCOCCOCCF)cc2)cc1 [FLORBETABEN] | 0.016 | – | – | – | – | – | – | – | – | – | – | – |
| CSC(=S)NCCNC(=O)CCC(=O)Nc1cccc2ccccc12 | 0.0158 | 195 | Active | Active | 1.77 | inactive | inactive | inactive | Active | Active | Active | – |
| O=C(O)CCCCCNC(=O)CCC(=O)Nc1cccc2ccccc12 | – | 433 | Active | – | – | – | – | – | – | – | – | Active |
| O=C(O)CCNC(=O)CCC(=O)Nc1cccc2ccccc12 | – | 874 | Active | – | – | – | – | – | – | – | – | Active |

From ChEMBL document CHEMBL4665878, “A new naphthalene derivative with anti-amyloidogenic activity as potential therapeutic agent for Alzheimer's disease” (Bioorg Med Chem, 2020)
